Data reported in the NIST ThermoML archive (doi:10.1016/j.jct.2012.04.007).

Key:
[1] = 101.33 kPa, Liquid, Vibrating tube method
[2] = xn = mol fraction of the nth substance listed; details: 101 kPa, Liquid, Vibrating tube method

CC(=O)N(C)C [N,N-dimethylethanamide]
[1]
Details | mass density [kg/m3]
278.15 K | 954.78
288.15 K | 945.591
298.15 K | 936.382
308.15 K | 927.142
318.15 K | 917.863

CC(=O)N(C)C [N,N-dimethylethanamide] + O
mass density [kg/m3], [2]
Details | 278.15 K | 288.15 K | 298.15 K | 308.15 K | 318.15 K
x2 = 0.0002901 | 954.8 | 945.61 | 936.4 | 927.16 | 917.88
x2 = 0.001042 | 954.84 | 945.65 | 936.44 | 927.2 | 917.92
x2 = 0.001656 | 954.87 | 945.68 | 936.47 | 927.23 | 917.95
x2 = 0.002777 | 954.93 | 945.74 | 936.53 | 927.28 | 918
x2 = 0.003783 | 954.99 | 945.8 | 936.58 | 927.34 | 918.05
x2 = 0.004833 | 955.05 | 945.85 | 936.64 | 927.39 | 918.1
x2 = 0.005867 | 955.1 | 945.91 | 936.69 | 927.44 | 918.16
x2 = 0.007593 | 955.19 | 946 | 936.78 | 927.53 | 918.24
x2 = 0.008945 | 955.27 | 946.07 | 936.85 | 927.6 | 918.31
x2 = 0.01063 | 955.36 | 946.16 | 936.94 | 927.69 | 918.39
x2 = 0.01192 | 955.43 | 946.23 | 937.01 | 927.75 | 918.46

CN(C)C=O [dimethylformamide]
[1]
Details | mass density [kg/m3]
278.15 K | 962.901
288.15 K | 953.398
298.15 K | 943.869
308.15 K | 934.298
318.15 K | 924.683

CN(C)C=O [dimethylformamide] + O
mass density [kg/m3], [2]
Details | 278.15 K | 288.15 K | 298.15 K | 308.15 K | 318.15 K
x2 = 0.0002028 | 962.91 | 953.41 | 943.88 | 934.31 | 924.69
x2 = 0.0008875 | 962.94 | 953.44 | 943.91 | 934.34 | 924.72
x2 = 0.001707 | 962.98 | 953.48 | 943.95 | 934.38 | 924.76
x2 = 0.002654 | 963.03 | 953.53 | 944 | 934.42 | 924.8
x2 = 0.003456 | 963.06 | 953.57 | 944.03 | 934.46 | 924.84
x2 = 0.00465 | 963.12 | 953.62 | 944.09 | 934.52 | 924.89
x2 = 0.006106 | 963.19 | 953.69 | 944.16 | 934.58 | 924.96
x2 = 0.007804 | 963.28 | 953.77 | 944.24 | 934.66 | 925.04
x2 = 0.009189 | 963.34 | 953.84 | 944.3 | 934.73 | 925.1
x2 = 0.01051 | 963.4 | 953.9 | 944.37 | 934.79 | 925.16
x2 = 0.01182 | 963.47 | 953.97 | 944.43 | 934.85 | 925.22

[2H]O[2H] [water-d2] + CC(=O)N(C)C
mass density [kg/m3], [2]
Details | 278.15 K | 288.15 K | 298.15 K | 308.15 K | 318.15 K
x1 = 0.0002901 | 954.8 | 945.61 | 936.4 | 927.16 | 917.88
x1 = 0.0009284 | 954.85 | 945.66 | 936.45 | 927.21 | 917.93
x1 = 0.00199 | 954.93 | 945.74 | 936.53 | 927.29 | 918
x1 = 0.002684 | 954.98 | 945.79 | 936.58 | 927.34 | 918.05
x1 = 0.003434 | 955.05 | 945.85 | 936.64 | 927.39 | 918.11
x1 = 0.004789 | 955.15 | 945.96 | 936.74 | 927.49 | 918.21
x1 = 0.005915 | 955.24 | 946.05 | 936.83 | 927.58 | 918.28
x1 = 0.007384 | 955.36 | 946.16 | 936.94 | 927.69 | 918.39
x1 = 0.008715 | 955.46 | 946.26 | 937.04 | 927.79 | 918.49
x1 = 0.01024 | 955.59 | 946.38 | 937.16 | 927.9 | 918.6
x1 = 0.01198 | 955.72 | 946.52 | 937.29 | 928.03 | 918.73

[2H]O[2H] [water-d2] + CN(C)C=O
mass density [kg/m3], [2]
Details | 278.15 K | 288.15 K | 298.15 K | 308.15 K | 318.15 K
x1 = 0.0002028 | 962.92 | 953.41 | 943.88 | 934.31 | 924.7
x1 = 0.0009641 | 962.98 | 953.47 | 943.94 | 934.37 | 924.75
x1 = 0.00191 | 963.05 | 953.54 | 944.01 | 934.44 | 924.82
x1 = 0.002862 | 963.12 | 953.61 | 944.08 | 934.5 | 924.89
x1 = 0.003812 | 963.19 | 953.68 | 944.15 | 934.57 | 924.96
x1 = 0.004846 | 963.27 | 953.76 | 944.23 | 934.65 | 925.03
x1 = 0.005839 | 963.35 | 953.84 | 944.3 | 934.72 | 925.1
x1 = 0.006984 | 963.44 | 953.92 | 944.39 | 934.81 | 925.19
x1 = 0.008587 | 963.56 | 954.05 | 944.51 | 934.93 | 925.31
x1 = 0.01049 | 963.71 | 954.19 | 944.65 | 935.07 | 925.44
x1 = 0.012 | 963.83 | 954.31 | 944.77 | 935.18 | 925.55
